Reference: patent US9144239B2, “Macrocyclic picolinamides as fungicides” (DOW AGROSCIENCES LLC, priority 2012, dated 2015)
Like-named read-outs stand apart in the source and are kept apart here.

What was measured:
Format in all cases: in vivo
[1] = tested on: Mycosphaerella graminicola; anamorph: Septoria tritici; assay: Fungicidal activity: leaf blotch of wheat (SEPTTR), wheat seedlings; settings: Zymoseptoria tritici
Protocol: Evaluation of Fungicidal Activity: Leaf Blotch of Wheat (Mycosphaerella Graminicola; Anamorph: Septoria tritici; Bayer Code […]) Technical grades of materials were dissolved in acetone, which were then mixed with nine volumes of water containing 110 ppm Triton X-100. The fungicide solutions were applied onto wheat seedlings using an automated booth sprayer to run-off. All sprayed plants were allowed to air dry prior to further handling. Wheat plants (variety Yuma) were grown from seed in a greenhouse in 50% mineral soil/50% soil-less Metro mix until the first leaf was fully emerged, with 7-10 seedlings per pot. These plants were inoculated with an aqueous spore suspension of Septoria tritici either prior to or after fungicide treatments. After inoculation the plants were kept in 100% relative humidity (one day in a dark dew chamber followed by two to three days in a lighted dew chamber at 20° C.) to permit spores to germinate and infect the leaf. The plants were then transferred to a greenhouse set at 20° C. for disease to develop. When disease symptoms were fully expressed on the 1st leaves of untreated plants, infection levels were assessed on a scale of 0 to 100 percent disease severity. Percent disease control was calculated using the ratio of disease severity on treated plants relative to untreated plants.

[2] = tested on: Puccinia triticina; synonym: Puccinia recondita f. sp. tritici; assay: Fungicidal activity: wheat brown rust (PUCCRT), wheat seedlings
Protocol: Technical grades of materials were dissolved in acetone, which were then mixed with nine volumes of water containing 110 ppm Triton X-100. The fungicide solutions were applied onto wheat seedlings using an automated booth sprayer to run-off. All sprayed plants were allowed to air dry prior to further handling. Wheat plants (variety Yuma) were grown from seed in a greenhouse in 50% mineral soil/50% soil-less Metro mix until the first leaf was fully emerged, with 7-10 seedlings per pot. These plants were inoculated with an aqueous spore suspension of Septoria tritici either prior to or after fungicide treatments. After inoculation the plants were kept in 100% relative humidity (one day in a dark dew chamber followed by two to three days in a lighted dew chamber at 20° C.) to permit spores to germinate and infect the leaf. The plants were then transferred to a greenhouse set at 20° C. for disease to develop. When disease symptoms were fully expressed on the 1st leaves of untreated plants, infection levels were assessed on a scale of 0 to 100 percent disease severity. Percent disease control was calculated using the ratio of disease severity on treated plants relative to untreated plants. Evaluation of Fungicidal Activity: Wheat Brown Rust (Puccinia […]; Synonym: Puccinia recondita f. Sp. Tritici; Bayer Code PUCCRT) Wheat plants (variety Yuma) were grown from seed in a greenhouse in 50% mineral soil/50% soil-less Metro mix until the first leaf was fully emerged, with 7-10 seedlings per pot. These plants were inoculated with an aqueous spore suspension of Puccinia triticina either prior to or after fungicide treatments. After inoculation the plants were kept in a dark dew room at 22° C. with 100% relative humidity overnight to permit spores to germinate and infect the leaf. The plants were then transferred to a greenhouse set at 24° C. for disease to develop. Fungicide formulation, application and disease assessment followed the procedures as described in the Example A.

[3] = tested on: Puccinia triticina; synonym: Puccinia recondita f. sp. tritici; assay: Fungicide mobility (dropline mobility test): wheat brown rust (PUCCRT); settings: 1 ug/leaf
Protocol: Evaluation of Fungicide Mobility: Wheat Brown Rust (Puccinia triticina; Synonym: Puccinia recondita f. sp. tritici; Bayer Code PUCCRT) “Yuma” wheat seedlings were used in the test. One mg of compound was dissolved in 9 μl of EC blank (emulsifiable concentrate) and 500 μl of acetone. Acetone was then evaporated overnight by leaving the vial open in a fume hood. Two milliliters of water containing 110 ppm Triton X-100 was added to each vial to prepare application solutions. A 2 μl drop of formulated material was applied to a marked line on the adaxial surface 5 cm from the leaf tip of the primary leaves. The primary leaves were kept in a horizontal position. Each treatment had 6 replicates. Plants were inoculated with PUCCRT 1-day after (1DPM) or 3-day prior to (3DCM) compound applications. When rust was fully expressed on primary leaves on control plants, the zone of treated leaves that was disease-free in the acropetal direction was measured with a ruler and converted to percent of the distance from marked line to leaf tip.

[4] = 24 h, 100 ppm, 1 Day Protectant, wheat, read-out: Disease Control SEPTTR 1DP
[5] = 72 h, 100 ppm, 3 Day Curative, wheat, read-out: Disease Control SEPTTR 3DC
[6] = 24 h, 100 ppm, 1 Day Protectant, wheat, read-out: Disease Control PUCCRT 1DP
[7] = 72 h, 100 ppm, 3 Day Curative, wheat, read-out: Disease Control PUCCRT 3DC
[8] = 24 h, 1 Day Protectant Mobility, read-out: Dropline Mobility Test PUCCRT 1DPM
[9] = 24 h, read-out: Disease Control SEPTTR 1DP
[10] = 72 h, read-out: Disease Control SEPTTR 3DC
[11] = 24 h, read-out: Disease Control PUCCRT 1DP
[12] = 72 h, read-out: Disease Control PUCCRT 3DC
[13] = 72 h, 3 Day Curative Mobility, read-out: Dropline Mobility Test PUCCRT 3DCM

COc1ccnc(C(=O)N[C@H]2CO[C@@H](C)[C@H](OCC(C)C)[C@@H](OCC(C)C)[C@H](C)OC2=O)c1O [Compound 26]
0 to 80%: pest or weed control at 100 ppm [1, 5] | pest or weed control at 1 µg/leaf [3, 8]
80 to 100%: pest or weed control at 100 ppm [1, 4] | pest or weed control at 100 ppm [2, 6] | pest or weed control at 100 ppm [2, 7]

CCCO[C@H]1[C@H](C)OC(=O)[C@@H](NC(=O)c2nccc(OC)c2O)COC[C@@H]1OCCC [Compound 58, 3-hydroxy-4-methoxy-N-((3S,7S,8S,9S)-9-methyl-2-oxo-7,8-dipropoxy-1,5-dioxonan-3-yl)picolinamide]
80 to 100%: pest or weed control at 100 ppm [2, 11] | pest or weed control at 100 ppm [2, 12] | pest or weed control at 1 µg/leaf [3, 8]
0 to 80%: pest or weed control at 100 ppm [1, 9] | pest or weed control at 100 ppm [1, 10] | pest or weed control at 1 µg/leaf [3, 13]

CCCO[C@H]1[C@H](C)OC(=O)[C@@H](NC(=O)c2nccc(OC)c2OCOC(C)=O)COC[C@@H]1OCCC [Compound 61]
80 to 100%: pest or weed control at 100 ppm [1, 4] | pest or weed control at 100 ppm [1, 5] | pest or weed control at 100 ppm [2, 6] | pest or weed control at 100 ppm [2, 7] | pest or weed control at 1 µg/leaf [3, 8]
0 to 80%: pest or weed control at 1 µg/leaf [3, 13]

CCCCCO[C@H]1[C@H](C)OC(=O)[C@@H](NC(=O)c2nccc(OC)c2O)COC[C@@H]1OCCCCC [Compound 62]
80 to 100%: pest or weed control at 100 ppm [1, 5] | pest or weed control at 100 ppm [2, 7]
0 to 80%: pest or weed control at 1 µg/leaf [3, 8]

CCCCCO[C@H]1[C@H](C)OC(=O)[C@@H](NC(=O)c2nccc(OC)c2OCOC(C)=O)COC[C@@H]1OCCCCC [Compound 64]
80 to 100%: pest or weed control at 100 ppm [1, 4] | pest or weed control at 100 ppm [1, 5] | pest or weed control at 100 ppm [2, 6] | pest or weed control at 100 ppm [2, 7]
0 to 80%: pest or weed control at 1 µg/leaf [3, 8] | pest or weed control at 1 µg/leaf [3, 13]

CCCCO[C@H]1COC[C@H](NC(=O)c2nccc(OC)c2O)C(=O)O[C@@H](C)[C@@H]1OC(=O)c1ccccc1 [Compound 66]
0 to 80%: pest or weed control at 100 ppm [1, 5] | pest or weed control at 1 µg/leaf [3, 8] | pest or weed control at 1 µg/leaf [3, 13]
80 to 100%: pest or weed control at 100 ppm [1, 4] | pest or weed control at 100 ppm [2, 6] | pest or weed control at 100 ppm [2, 7]

COc1ccnc(C(=O)N[C@H]2COC[C@H](OCCCC(F)(F)F)[C@@H](OCCCC(F)(F)F)[C@H](C)OC2=O)c1O [Compound 67]
80 to 100%: pest or weed control at 100 ppm [2, 6]
0 to 80%: pest or weed control at 100 ppm [1, 4] | pest or weed control at 100 ppm [1, 5] | pest or weed control at 100 ppm [2, 7] | pest or weed control at 1 µg/leaf [3, 8] | pest or weed control at 1 µg/leaf [3, 13]

CCCCO[C@H]1COC[C@H](NC(=O)c2nccc(OC)c2OCOC(C)=O)C(=O)O[C@@H](C)[C@@H]1OC(=O)c1ccccc1 [Compound 69]
80 to 100%: pest or weed control at 100 ppm [1, 4] | pest or weed control at 100 ppm [1, 5] | pest or weed control at 100 ppm [2, 6] | pest or weed control at 100 ppm [2, 7]
0 to 80%: pest or weed control at 1 µg/leaf [3, 8] | pest or weed control at 1 µg/leaf [3, 13]

COc1ccnc(C(=O)N[C@H]2COC[C@H](OCC(C)C)[C@@H](O)[C@H](C)OC2=O)c1O [Compound 70]
0 to 80%: pest or weed control at 100 ppm [1, 4] | pest or weed control at 100 ppm [1, 5] | pest or weed control at 100 ppm [2, 6] | pest or weed control at 100 ppm [2, 7] | pest or weed control at 1 µg/leaf [3, 8] | pest or weed control at 1 µg/leaf [3, 13]

COc1ccnc(C(=O)N[C@H]2COC[C@H](OC3CCCCC3)[C@@H](O)[C@H](C)OC2=O)c1O [Compound 74]
0 to 80%: pest or weed control at 100 ppm [1, 4] | pest or weed control at 100 ppm [1, 5] | pest or weed control at 100 ppm [2, 6] | pest or weed control at 100 ppm [2, 7] | pest or weed control at 1 µg/leaf [3, 8] | pest or weed control at 1 µg/leaf [3, 13]

COc1ccnc(C(=O)N[C@H]2COC[C@H](OCC(C)C)[C@@H](OC3CCCCC3)[C@H](C)OC2=O)c1O [Compound 75]
0 to 80%: pest or weed control at 100 ppm [1, 5] | pest or weed control at 1 µg/leaf [3, 8] | pest or weed control at 1 µg/leaf [3, 13]
80 to 100%: pest or weed control at 100 ppm [1, 4] | pest or weed control at 100 ppm [2, 6] | pest or weed control at 100 ppm [2, 7]

COc1ccnc(C(=O)N[C@H]2COC[C@H](OC3CCCCC3)[C@@H](OCC(C)C)[C@H](C)OC2=O)c1OCOC(C)=O [Compound 76]
0 to 80%: pest or weed control at 1 µg/leaf [3, 13]
80 to 100%: pest or weed control at 100 ppm [1, 4] | pest or weed control at 100 ppm [1, 5] | pest or weed control at 100 ppm [2, 6] | pest or weed control at 100 ppm [2, 7] | pest or weed control at 1 µg/leaf [3, 8]

COc1ccnc(C(=O)N[C@H]2COC[C@H](Oc3ccccc3)[C@@H](Oc3ccccc3)[C@H](C)OC2=O)c1O [Compound 81, 3-hydroxy-4-methoxy-N-((3S,7S,8S,9S)-9-methyl-2-oxo-7,8-diphenoxy-1,5-dioxonan-3-yl)picolinamide]
0 to 80%: pest or weed control at 1 µg/leaf [3, 13]
80 to 100%: pest or weed control at 100 ppm [1, 9] | pest or weed control at 100 ppm [1, 10] | pest or weed control at 100 ppm [2, 11] | pest or weed control at 100 ppm [2, 12] | pest or weed control at 1 µg/leaf [3, 8]

CCOCC(=O)OCOc1c(OC)ccnc1C(=O)N[C@H]1COC[C@H](Oc2ccc(F)cc2)[C@@H](OCC(C)C)[C@H](C)OC1=O [Compound 227]
80 to 100%: pest or weed control at 100 ppm [1, 4] | pest or weed control at 100 ppm [1, 5] | pest or weed control at 100 ppm [2, 6] | pest or weed control at 100 ppm [2, 7]

CCOCC(=O)OCOc1c(OC)ccnc1C(=O)N[C@H]1COC[C@H](Oc2ccc(F)cc2)[C@@H](Oc2ccc(F)cc2)[C@H](C)OC1=O [Compound 230]
80 to 100%: pest or weed control at 100 ppm [1, 4] | pest or weed control at 100 ppm [1, 5] | pest or weed control at 100 ppm [2, 6] | pest or weed control at 100 ppm [2, 7]

COc1ccnc(C(=O)N[C@H]2COC[C@H](OCC3CC3)[C@@H](OCC3CC3)[C@H](C)OC2=O)c1OCOC(C)=O [Compound 233]
80 to 100%: pest or weed control at 100 ppm [1, 4] | pest or weed control at 100 ppm [2, 6] | pest or weed control at 100 ppm [2, 7]
0 to 80%: pest or weed control at 100 ppm [1, 5]

COc1ccnc(C(=O)N[C@H]2COC[C@H](Oc3ccccc3)[C@@H](Oc3ccccc3)[C@H](C)OC2=O)c1OCOC(=O)C(C)C [Compound 234]
80 to 100%: pest or weed control at 100 ppm [1, 4] | pest or weed control at 100 ppm [1, 5] | pest or weed control at 100 ppm [2, 6] | pest or weed control at 100 ppm [2, 7] | pest or weed control at 1 µg/leaf [3, 8]

COCCC(=O)Oc1c(OC)ccnc1C(=O)N[C@H]1COC[C@H](Oc2ccccc2)[C@@H](Oc2ccccc2)[C@H](C)OC1=O [Compound 235]
80 to 100%: pest or weed control at 100 ppm [1, 4] | pest or weed control at 100 ppm [1, 5] | pest or weed control at 100 ppm [2, 6] | pest or weed control at 100 ppm [2, 7]
0 to 80%: pest or weed control at 1 µg/leaf [3, 8]

COc1ccnc(C(=O)N[C@H]2COC[C@H](Oc3ccccc3)[C@@H](Oc3ccccc3)[C@H](C)OC2=O)c1OC(C)=O [Compound 236]
80 to 100%: pest or weed control at 100 ppm [1, 4] | pest or weed control at 100 ppm [1, 5] | pest or weed control at 100 ppm [2, 6] | pest or weed control at 100 ppm [2, 7]
0 to 80%: pest or weed control at 1 µg/leaf [3, 8]
